From ChEMBL document CHEMBL1133756, “A potent aldose reductase inhibitor, (2S,4S)-6-fluoro-2', 5'-dioxospiro[chroman-4,4'-imidazolidine]-2-carboxamide (Fidarestat): its absolute configuration and interactions with the aldose reductase by X-ray crystallography” (J Med Chem, 2000)

What was measured:
[1] = molecular target: Aldo-keto reductase family 1 member B1 (Rattus norvegicus, UniProt P07943); experiment: Tested for in vitro inhibition activity against rat Aldose reductase (AR)
[2] = molecular target: T1, Aldo-keto reductase family 1 member A1 (Homo sapiens, UniProt P14550); experiment: Tested for in vitro inhibition activity against human aldehyde reductase (AHR)
T1 sequence (P14550 whole entry): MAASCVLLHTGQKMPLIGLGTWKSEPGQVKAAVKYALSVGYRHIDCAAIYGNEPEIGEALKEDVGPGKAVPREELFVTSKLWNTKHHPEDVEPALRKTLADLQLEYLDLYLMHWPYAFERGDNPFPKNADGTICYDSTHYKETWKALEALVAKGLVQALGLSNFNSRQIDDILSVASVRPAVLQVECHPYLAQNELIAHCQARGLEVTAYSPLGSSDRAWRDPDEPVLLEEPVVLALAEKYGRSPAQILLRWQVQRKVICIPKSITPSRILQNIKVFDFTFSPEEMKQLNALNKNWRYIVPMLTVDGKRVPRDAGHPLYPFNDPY

[3] = molecular target: Aldo-keto reductase family 1 member B1 (Homo sapiens, UniProt P15121); experiment: Tested for in vitro inhibition activity against human Aldose reductase (human AR)

IC50 [1] [nM]	IC50 [2] [nM]	IC50 [3] [nM]	SMILES
570			NC(=O)[C@H]1C[C@]2(NC(=O)NC2=O)c2cc(F)ccc2O1
35	1200	9	NC(=O)[C@@H]1C[C@]2(NC(=O)NC2=O)c2cc(F)ccc2O1
